The data set in a line: pKa and ionisation of active ingredients. In kind it is physicochemical. Particulars: at a pH of 8.3.

Each structure is given as a SMILES string.

The values that follow come from patent US20060073189A1, “Chewing gums, lozenges, candies, tablets, liquids, and sprays for efficient delivery of medications and dietary supplements” (priority 2000, published 2006).

As to `CN(C)CCOC(c1ccccc1)c1ccccc1` [diphenhydramine], the ionized was determined as 50%.
